Values joined by “and” are separate entries in the source; they are usually repeats but may differ in a detail not shown here. Equal values may be shown once.
Key:
Endothelin-1 receptor = target: T1, Endothelin-1 receptor (Homo sapiens, UniProt P25101); test: Inhibitory concentration to the endothelin A receptor expressed in LtK cells; type: cell-based
T1 sequence (P25101 whole entry): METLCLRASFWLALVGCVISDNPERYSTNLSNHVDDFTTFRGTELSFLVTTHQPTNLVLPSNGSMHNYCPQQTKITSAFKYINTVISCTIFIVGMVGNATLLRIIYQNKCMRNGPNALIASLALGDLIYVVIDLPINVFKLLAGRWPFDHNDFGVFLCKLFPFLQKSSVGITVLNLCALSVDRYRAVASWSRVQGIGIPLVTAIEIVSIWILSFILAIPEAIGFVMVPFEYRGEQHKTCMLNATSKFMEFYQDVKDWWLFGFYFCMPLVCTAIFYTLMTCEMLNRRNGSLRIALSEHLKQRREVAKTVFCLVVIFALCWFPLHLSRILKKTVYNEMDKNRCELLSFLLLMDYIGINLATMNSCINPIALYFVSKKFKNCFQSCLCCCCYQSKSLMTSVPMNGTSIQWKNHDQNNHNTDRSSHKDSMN

[1] = target: T2, Endothelin receptor type B (Homo sapiens, UniProt P24530); test: Inhibitory concentration against Endothelin B receptor expressed in CHO-K1 cells; type: cell-based
T2 sequence (P24530 whole entry): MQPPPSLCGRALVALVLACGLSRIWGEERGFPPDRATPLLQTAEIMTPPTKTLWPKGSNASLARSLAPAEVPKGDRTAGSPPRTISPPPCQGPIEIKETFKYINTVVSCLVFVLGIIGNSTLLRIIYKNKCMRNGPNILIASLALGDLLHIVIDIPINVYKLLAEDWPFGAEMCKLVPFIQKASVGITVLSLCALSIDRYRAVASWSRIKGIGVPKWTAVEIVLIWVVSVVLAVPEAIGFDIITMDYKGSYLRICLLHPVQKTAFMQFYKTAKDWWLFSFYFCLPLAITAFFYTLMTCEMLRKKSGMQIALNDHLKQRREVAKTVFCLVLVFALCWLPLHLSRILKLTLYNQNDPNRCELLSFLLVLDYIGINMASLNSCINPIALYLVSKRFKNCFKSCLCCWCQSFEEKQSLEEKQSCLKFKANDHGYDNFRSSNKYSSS

[2] = target: T3, Endothelin receptor type B (Rattus norvegicus, UniProt P21451); test: Compound was evaluated for binding affinity against rat Endothelin B receptor; inactive
T3 sequence (P21451 whole entry): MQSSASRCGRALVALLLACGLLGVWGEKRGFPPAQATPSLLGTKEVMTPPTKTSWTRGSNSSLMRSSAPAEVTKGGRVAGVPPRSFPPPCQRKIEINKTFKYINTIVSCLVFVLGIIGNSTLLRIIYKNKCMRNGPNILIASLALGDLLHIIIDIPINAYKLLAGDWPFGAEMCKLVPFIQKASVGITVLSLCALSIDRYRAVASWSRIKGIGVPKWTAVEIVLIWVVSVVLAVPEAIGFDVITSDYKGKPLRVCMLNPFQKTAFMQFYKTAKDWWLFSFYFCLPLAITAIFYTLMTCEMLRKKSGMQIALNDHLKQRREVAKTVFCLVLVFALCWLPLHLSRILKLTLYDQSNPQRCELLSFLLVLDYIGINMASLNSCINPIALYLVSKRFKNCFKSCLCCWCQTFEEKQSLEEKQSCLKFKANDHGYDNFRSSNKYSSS

[3] = target: Endothelin-1 receptor (Oryctolagus cuniculus); test: Compound was evaluated for binding affinity against rabbit Endothelin A receptor
[4] = target: T2, Endothelin receptor type B; test: Compound was evaluated for binding affinity against human Endothelin B receptor
Oryctolagus cuniculus [5] = species: Oryctolagus cuniculus; test: Inhibition of arachidonic acid release (AAR-B) in rabbit renal artery vascular smooth muscle cells (ETA) upon stimulation with ET-1; type: functional
Oryctolagus cuniculus [6] = species: Oryctolagus cuniculus; test: Ability to inhibit the release of arachidonic acid in rabbit renal artery vascular smooth muscle cells (ETA) upon stimulation with ET-1; type: functional

| Structure (SMILES) | IC50 (Endothelin-1 receptor) | IC50 [1] | other results |
| --- | --- | --- | --- |
| COc1ccc(-c2c(C(=O)O)n(-c3ccc4c(c3)OCO4)c3ccc(OCc4ccccc4)cc23)cc1 | 2400 nM | 21000 nM | – |
| COc1ccc2c(c1)c(-c1ccc(OC)c(OC)c1)c(C(=O)O)n2-c1ccc2c(c1)OCO2 | 1500 nM | > 25000 nM | – |
| O=C(O)c1c(-c2ccc3c(c2)OCO3)c2ccccc2n1Cc1ccc2c(c1)OCO2 | 1500 nM | 3300 nM | – |
| COc1ccc(-n2c(C(=O)O)c(-c3ccc4c(c3)OCO4)c3cc(OC)ccc32)cc1 | 3500 nM | > 25000 nM | – |
| O=C(O)c1c(-c2ccc3c(c2)OCO3)c2ccccc2n1-c1ccc2c(c1)OCO2 | 4100 nM | 22000 nM | – |
| CCCOc1ccc2c(c1)c(-c1ccc3c(c1)OCO3)c(C(=O)O)n2Cc1ccc2c(c1)OCO2 | 130 nM and 80 nM | 1100 nM and 850 nM | – |
| O=C(O)c1c(-c2ccc3c(c2)OCO3)c2cc(Cl)ccc2n1-c1ccccc1 | 10000 nM | > 25000 nM | – |
| COc1ccc2c(c1)c(-c1ccc3c(c1)OCO3)c(C(=O)O)n2-c1ccccc1 | 12000 nM | > 25000 nM | – |
| O=C(O)c1c(-c2ccc3c(c2)OCO3)c2ccccc2n1Cc1ccccc1 | 11000 nM | 14500 nM | – |
| CC(C)Oc1c(C(=O)O)sc2ccc(OCc3ccccc3)cc12 | – | – | IC50 [2]: Not Active; IC50 [3]: 6000 nM; IC50 [4]: > 100000 nM |
| COc1ccc(Cn2c(C(=O)O)c(-c3ccc4c(c3)OCO4)c3cc(OCc4ccccc4)ccc32)cc1 | 2700 nM | 4400 nM | – |
| COc1ccc2c(-c3ccc4c(c3)OCO4)c(C(=O)O)n(-c3ccccc3)c2c1 | 7400 nM | > 25000 nM | – |
| COc1cccc(-c2c(C(=O)O)n(-c3ccc4c(c3)OCO4)c3ccc(OC)cc23)c1 | 5500 nM | > 25000 nM | – |
| COc1ccc(-n2c(C(=O)O)c(-c3ccc4c(c3)OCO4)c3ccccc32)cc1 | 2300 nM | > 25000 nM | – |

Further lines, with some results ahead:

| IC50 (Endothelin-1 receptor) | IC50 [1] | Structure (SMILES) | other results |
| --- | --- | --- | --- |
| 60 nM | – | COc1cc2c(-c3ccc4c(c3)OCO4)c(C(=O)O)n(Cc3ccc4c(c3)OCO4)c2cc1OC | – |
| 240 nM | 670 nM | O=C(O)c1c(-c2ccc3c(c2)OCO3)c2cc3c(cc2n1Cc1ccc2c(c1)OCO2)OCO3 | – |
| 60 nM | 850 nM | COc1ccc(-c2c(C(=O)O)n(Cc3ccc4c(c3)OCO4)c3cc(OC)c(OC)cc23)cc1OC | – |
| 1300 nM | 14000 nM | O=C(O)c1c(-c2ccc3c(c2)OCO3)c2cc(OCc3ccccc3)ccc2n1-c1ccc2c(c1)OCO2 | – |
| 43 nM | 12000 nM | CCCOc1ccc2c(c1)c(-c1ccc3c(c1)OCO3)c(C(=O)O)n2-c1ccc2c(c1)OCO2 | – |
| 350 nM | 2400 nM | COc1ccc2c(c1)c(-c1ccc3c(c1)OCO3)c(C(=O)O)n2Cc1ccc2c(c1)OCO2 | – |
| 80 nM | 7000 nM | COc1cc2c(-c3ccc4c(c3)OCO4)c(C(=O)O)n(-c3ccc4c(c3)OCO4)c2cc1OC | – |
| 30 nM | 50 nM | COc1cc2c(-c3ccc4c(c3)OCO4)c(C(=O)O)n(Cc3ccc4c(c3)OCO4)c2cc1OCc1ccccc1 | IC50 (Oryctolagus cuniculus [5]): 230 nM |
| 800 nM | 2500 nM | O=C(O)c1c(-c2ccc3c(c2)OCO3)c2cc(OCc3ccccc3)ccc2n1Cc1ccc2c(c1)OCO2 | – |
| 47 nM | 5600 nM | CCCOc1ccc2c(-c3ccc4c(c3)OCO4)c(C(=O)O)n(Cc3ccc4c(c3)OCO4)c2c1 | IC50 (Oryctolagus cuniculus [6]): 480 nM |
| 1100 nM | > 25000 nM | COc1ccc(-c2c(C(=O)O)n(-c3ccc4c(c3)OCO4)c3ccc(OC)cc23)cc1 | – |
| 260 nM | 15000 nM | COc1ccc2c(c1)c(-c1ccc3c(c1)OCO3)c(C(=O)O)n2-c1ccc2c(c1)OCO2 | – |
